Experimental data: the supplement of paper PMC10307832

Columns and labels:
Assay in all cases: relative viability (nuclei count vs DMSO), 5 days (fraction); higher = more cells survive
Masitinib + Dasatinib = compound: Cc1ccc(NC(=O)c2ccc(CN3CCN(C)CC3)cc2)cc1Nc1nc(-c2cccnc2)cs1 [Masitinib] + Cc1nc(Nc2ncc(C(=O)Nc3c(C)cccc3Cl)s2)cc(N2CCN(CCO)CC2)n1 [Dasatinib] (partner 0.075 µM)
Procedure, shortened: (§1)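 Nuclei were stained with Hoechst during a one-step fixation (final 0.05% Triton X-100, 1% formaldehyde, 1 ug/ml Hoechst) carried out 5 days after dosing, then counted on 4× images. The cells, lung cancer lines in 1536-well plates, had been dosed by pin tool the day after seeding with one drug alone or a fixed anchor-drug dose plus five library-drug doses (not always all listed) in √10 steps. Relative viability is the nuclei count in treated wells divided by that in vehicle wells, and each value is the median of duplicate plates.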

Masitinib + Vorinostat = compound: Cc1ccc(NC(=O)c2ccc(CN3CCN(C)CC3)cc2)cc1Nc1nc(-c2cccnc2)cs1 [Masitinib] + O=C(CCCCCCC(=O)Nc1ccccc1)NO [Vorinostat] (partner 1 µM)
Procedure, shortened: as §1

Masitinib + Decitabine = compound: Cc1ccc(NC(=O)c2ccc(CN3CCN(C)CC3)cc2)cc1Nc1nc(-c2cccnc2)cs1 [Masitinib] + Nc1ncn([C@H]2C[C@H](O)[C@@H](CO)O2)c(=O)n1 [Decitabine] (partner 2 µM)
Procedure, shortened: as §1

[1] = compound: CC1=CC(=CC=C1)NC2=NC(=CS2)C3=CC=NC=C3 + O=C(CCCCCCC(=O)Nc1ccccc1)NO [Vorinostat] (partner 1 µM)
Procedure, shortened: as §1

Cell Line	relative viability (Masitinib + Dasatinib; first compound 0.01 µM)	relative viability (Masitinib + Dasatinib; first compound 0.03162 µM)	relative viability (Masitinib + Dasatinib; first compound 0.1 µM)	relative viability (Masitinib + Dasatinib; first compound 0.3162 µM)	relative viability (Masitinib + Dasatinib; first compound 1 µM)	relative viability (Masitinib + Vorinostat; first compound 0.01 µM)	relative viability (Masitinib + Vorinostat; first compound 0.03162 µM)	relative viability (Masitinib + Vorinostat; first compound 0.1 µM)	relative viability (Masitinib + Vorinostat; first compound 0.3162 µM)	relative viability (Masitinib + Vorinostat; first compound 1 µM)	relative viability (Masitinib + Decitabine; first compound 0.01 µM)	relative viability (Masitinib + Decitabine; first compound 0.03162 µM)	relative viability (Masitinib + Decitabine; first compound 0.1 µM)	relative viability (Masitinib + Decitabine; first compound 0.3162 µM)	relative viability (Masitinib + Decitabine; first compound 1 µM)	relative viability ([1]; first compound 0.08 µM)	relative viability ([1]; first compound 0.253 µM)	relative viability ([1]; first compound 0.8 µM)	relative viability ([1]; first compound 2.53 µM)	relative viability ([1]; first compound 8 µM)
HCC-15	0.516	0.617	0.68	0.512	0.59	0.789	0.814	0.868	0.827	0.811	0.58	0.546	0.659	0.582	0.638	0.678	0.645	0.773	0.67	0.636
HCC-44	–	–	–	–	–	0.914	1.1	1.06	1.06	1.03	0.665	0.898	0.675	0.868	1.09	1.02	0.926	0.826	0.797	0.825
COR-L23	0.411	0.419	0.531	0.437	0.543	0.532	0.411	0.435	0.46	0.373	0.388	0.412	0.463	0.329	0.359	0.251	0.422	0.317	0.375	0.36
HCC-78	0.468	0.312	0.392	0.468	0.366	0.485	0.435	0.468	0.47	0.388	0.634	0.637	0.605	0.693	0.615	0.513	0.468	0.477	0.41	0.481
NCI-H1355	0.69	0.485	0.701	0.436	0.69	0.631	0.518	0.633	0.464	0.577	0.351	0.345	0.393	0.341	0.367	0.521	0.458	0.429	0.403	0.469
NCI-H1563	0.399	0.481	0.49	0.481	0.415	–	–	–	–	–	–	–	–	–	–	–	–	–	–	–
NCI-H1648	–	–	–	–	–	0.471	0.401	0.454	–	0.555	0.614	0.451	0.568	–	0.453	0.279	0.455	0.548	0.422	0.349
NCI-H1792	0.757	0.342	0.83	0.718	1.32	–	–	–	–	–	0.621	0.443	0.51	0.438	0.472	–	–	–	–	–
A549	–	–	–	–	–	–	–	–	–	–	0.249	0.251	0.219	0.433	0.278	–	–	–	–	–
NCI-H1623	0.488	0.446	0.551	0.453	0.43	–	–	–	–	–	–	–	–	–	–	–	–	–	–	–
IA-LM	–	–	–	–	–	0.737	0.747	1.06	1.19	0.957	–	–	–	–	–	0.884	0.954	0.942	–	0.78
CAL-12T	0.452	0.381	0.34	0.306	0.374	0.942	0.756	0.904	0.986	0.684	–	–	–	–	–	0.565	0.74	0.85	0.609	0.716
